Consider seven molecules from paper PMC2677215 (Biochemical Journal, 2009).

Common to all, as to assay: radiometric citrulline NOS assay
Common to all, as to format: biochemical

In assay [1] the target is T1, Physarum NOS form A (clone A1; physnosa) (Badhamia polycephala, UniProt A6XKZ4).
For assay [2], the target named is T2, Physarum NOS form B (clone B+; physnosb) (Badhamia polycephala, UniProt A6XKZ6).
Assay [3] concerns the target T2, Physarum NOS form B (clone B+; physnosb). This is another data set of the same source.
The target of assay [4] is T1, Physarum NOS form A (clone A1; physnosa). This is another data set of the same source.

Molecules are shown by their SMILES.

In the case of `Cc1cc2nc3c(=O)[nH]c(=O)nc-3n(C[C@H](O)[C@H](O)[C@H](O)COP(=O)(O)OP(=O)(O)OC[C@H]3O[C@@H](n4cnc5c(N)ncnc54)[C@H](O)[C@@H]3O)c2cc1C` [FAD], the EC50 (as a rule, the concentration needed to bring the measured effect to its halfway point) came out at 3.9 ± 1.6 µM in assay [1] and 2100 ± 1600 nM in assay [2].
Taken in the same sequence, the figures for `Cc1cc2nc3c(=O)[nH]c(=O)nc-3n(C[C@H](O)[C@H](O)[C@H](O)COP(=O)(O)O)c2cc1C` [FMN] were 1.7 ± 0.6 µM and 200 ± 200 nM.
Taken in the same sequence, the figures for `C[C@H](O)[C@H](O)[C@H]1CNc2nc(N)[nH]c(=O)c2N1` [H4-bip, 6R-5,6,7,8-tetrahydro-L-biopterin] were 7.9 ± 1.2 µM and 700 ± 100 nM.
Consider `CC(=N)NCCCC[C@H](N)C(=O)O` [L-NIL, L-N6(1-iminoethyl)-lysine], for which the results for the IC50 in assay [3] and in assay [4] were 76.7 ± 4.3 µM and 81.3 ± 7.8 µM, respectively.
For the molecule `CNC(=N)NCCC[C@H](N)C(=O)O` [L-NMMA, N^ω-methyl-L-arginine], the half-inhibitory concentration (IC50) (commonly the midpoint of a concentration-inhibition curve) amounted to 44.3 ± 19.2 µM in assay [3] and 45.2 ± 23.5 µM in assay [4].
Taken in the same sequence, the figures for `N=C(NCCC[C@H](N)C(=O)O)N[N+](=O)[O-]` [L-NNA, N^ω-nitro-L-arginine] were 39.8 ± 20.3 µM and 25.7 ± 10.7 µM.
Regarding `NC(=O)C1=CN([C@@H]2O[C@H](COP(=O)(O)OP(=O)(O)OC[C@H]3O[C@@H](n4cnc5c(N)ncnc54)[C@H](OP(=O)(O)O)[C@@H]3O)[C@@H](O)[C@H]2O)C=CC1` [NADPH], the results for the EC50 in assay [1] and in assay [2] were 57.2 ± 6.5 µM and 60300 ± 13800 nM, respectively.
